Key:
[1] = system: reversibly immortalized mouse beta (R7T1) cells; assay: R7T1 proliferation assay (CellTiter Glo); type: cell-based; details: growth-arrested R7T1 cells
Protocol: Reversibly immortalized mouse β-cells (R7T1)[49] express SV40 T antigen under a tetracycline inducible promoter. R7T1 cells were expanded in the presence of doxycycline. For experiments on proliferation, R7T1 cells were growth arrested by removal of doxycycline for 2 days and plated into 384-well plates at a density of 3,000 cells per well in growth medium. β-Cell proliferation was assessed using CellTiter Glo (Promega) after 4 days. Fold increase in cell number was calculated by normalizing compound-treated wells to the median of DMSO-treated wells.

[2] = system: Wnt-driven luciferase reporter in TM3 cells; assay: Wnt-driven luciferase reporter gene (Super Top Flash); type: cell-based
Text: Supplementary Figure 8. Selective Dyrk1a inhibition is sufficient to induce β-cell proliferation.
Top Flash) in TM3 cells (mean ± SD; n=3). (b) GNF6324-treated primary rat islets were
immunostained for nuclear localization of β-catenin in EdU and insulin co-positive cells. Co-
vehicle control cells. Scale bar = 20 µm. (c-e) Selective Dyrk1a inhibitors stimulate EdU
Beta-catenin/Insulin/DAPI
% E d U (+ ) b e ta c e lls
% E d U (+ ) in s u lin (+ ) c e lls […]
% E d U ( + ) in s u lin (+ ) c e lls C o n tro l
(1 picture or pasted object on this page, not shown here)

BMX = biological target: T1, BMX (Homo sapiens, UniProt P51813); assay: Kinase profiling; type: biochemical; details: Conc 1000 nM; read-out: Percent inhibition, BMX
T1 construct: purchased Ambit KINOMEscan
Text: (§1) ; Fig. 5a; Supplementary Table 1). We focused on Dyrk1a because other kinases inhibited by aminopyrazine compounds were not highly expressed in β-cells and because Dyrk1a was known to inhibit the NFAT pathway that was previously implicated in β-cell proliferation. We used molecular modelling to dock the aminopyrazine compounds into the published structure of Dyrk1a (protein databank accession code 2vx3.pdb; Fig. 5b).

EGFR = biological target: T2, EGFR (Homo sapiens, UniProt P00533); assay: Kinase profiling; type: biochemical; details: Conc 1000 nM; read-out: Percent inhibition, EGFR
T2 construct: purchased Ambit KINOMEscan
Text: as §1

EphA3 = biological target: T3, EphA3 (Homo sapiens, UniProt P29320); assay: Kinase profiling; type: biochemical; details: Conc 1000 nM; read-out: Percent inhibition, EphA3
T3 construct: purchased Ambit KINOMEscan
Text: as §1

ErbB4 (HER4) = biological target: T4, ErbB4 (HER4) (Homo sapiens, UniProt Q15303); assay: Kinase profiling; type: biochemical; details: Conc 1000 nM; read-out: Percent inhibition, ErbB4 (HER4)
T4 construct: purchased Ambit KINOMEscan
Text: as §1

FGFR3 = biological target: T5, FGFR3 (Homo sapiens, UniProt P22607); assay: Kinase profiling; type: biochemical; details: Conc 1000 nM; read-out: Percent inhibition, FGFR3
T5 construct: purchased Ambit KINOMEscan
Text: as §1

IGF1R = biological target: T6, IGF1R (Homo sapiens, UniProt P08069); assay: Kinase profiling; type: biochemical; details: Conc 1000 nM; read-out: Percent inhibition, IGF1R
T6 construct: purchased Ambit KINOMEscan
Text: as §1

IKKb = biological target: T7, IKKb (Homo sapiens, UniProt O14920); assay: Kinase profiling; type: biochemical; details: Conc 1000 nM; read-out: Percent inhibition, IKKb
T7 construct: purchased Ambit KINOMEscan
Text: as §1

JNK2 = biological target: T8, JNK2 (Homo sapiens, UniProt P45984); assay: Kinase profiling; type: biochemical; details: Conc 1000 nM; read-out: Percent inhibition, JNK2
T8 construct: purchased Ambit KINOMEscan
Text: as §1

KDR (VEGFR2, FLK1) = biological target: T9, KDR (VEGFR2, FLK1) (Homo sapiens, UniProt P35968); assay: Kinase profiling; type: biochemical; details: read-out: Percent inhibition, KDR (VEGFR2, FLK1); for inhibition at 1 µM: Conc 1000 nM
T9 construct: purchased Ambit KINOMEscan
Text: as §1

MAPK1 (ERK2) = biological target: T10, MAPK1 (ERK2) (Homo sapiens, UniProt P28482); assay: Kinase profiling; type: biochemical; details: Conc 1000 nM; read-out: Percent inhibition, MAPK1 (ERK2)
T10 construct: purchased Ambit (KINOMEscan)
Text: as §1

MET = biological target: T11, MET (Homo sapiens, UniProt P08581); assay: Kinase profiling; type: biochemical; details: Conc 1000 nM; read-out: Percent inhibition, MET
T11 construct: purchased Ambit (KINOMEscan)
Text: as §1

NEK2 = biological target: T12, NEK2 (Homo sapiens, UniProt P51955); assay: Kinase profiling; type: biochemical; details: Conc 1000 nM; read-out: Percent inhibition, NEK2
T12 construct: purchased Ambit (KINOMEscan)
Text: as §1

PIM-2 = biological target: T13, PIM-2 (Homo sapiens, UniProt Q9P1W9); assay: Kinase profiling; type: biochemical; details: Conc 1000 nM; read-out: Percent inhibition, PIM-2
T13 construct: purchased Ambit (KINOMEscan)
Text: as §1

RET = biological target: T14, RET (Homo sapiens, UniProt P07949); assay: Kinase profiling; type: biochemical; details: read-out: Percent inhibition, RET; for inhibition at 1 µM: Conc 1000 nM
T14 construct: purchased Ambit (KINOMEscan)
Text: as §1

SRC = biological target: T15, SRC (Homo sapiens, UniProt P12931); assay: Kinase profiling; type: biochemical; details: Conc 1000 nM; read-out: Percent inhibition, SRC
T15 construct: purchased Ambit (KINOMEscan)
Text: as §1

SYK = biological target: T16, SYK (Homo sapiens, UniProt P43405); assay: Kinase profiling; type: biochemical; details: read-out: Percent inhibition, SYK; for inhibition at 1 µM: Conc 1000 nM
T16 construct: purchased Ambit (KINOMEscan)
Text: as §1

ZAP70 = biological target: T17, ZAP70 (Homo sapiens, UniProt P43403); assay: Kinase profiling; type: biochemical; details: read-out: Percent inhibition, ZAP70; for inhibition at 1 µM: Conc 1000 nM
T17 construct: purchased Ambit (KINOMEscan)
T17 sequence (P43403 1-619): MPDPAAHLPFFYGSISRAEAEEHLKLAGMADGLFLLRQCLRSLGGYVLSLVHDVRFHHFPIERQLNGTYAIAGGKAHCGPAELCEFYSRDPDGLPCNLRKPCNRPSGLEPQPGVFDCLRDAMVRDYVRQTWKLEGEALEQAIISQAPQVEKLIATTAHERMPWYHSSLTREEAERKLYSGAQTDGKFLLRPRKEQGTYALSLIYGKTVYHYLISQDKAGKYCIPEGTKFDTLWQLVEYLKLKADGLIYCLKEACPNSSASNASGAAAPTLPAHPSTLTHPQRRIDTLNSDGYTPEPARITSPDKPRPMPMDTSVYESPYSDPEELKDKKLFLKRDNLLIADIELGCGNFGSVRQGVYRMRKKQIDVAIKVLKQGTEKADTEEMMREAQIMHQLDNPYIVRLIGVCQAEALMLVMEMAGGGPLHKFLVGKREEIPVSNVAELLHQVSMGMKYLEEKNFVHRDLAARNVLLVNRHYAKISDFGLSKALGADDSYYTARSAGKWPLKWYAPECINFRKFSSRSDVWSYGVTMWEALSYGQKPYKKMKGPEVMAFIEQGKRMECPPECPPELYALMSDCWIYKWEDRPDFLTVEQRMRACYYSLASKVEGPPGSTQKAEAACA
Text: as §1

bRAF = biological target: T18, bRAF (Homo sapiens, UniProt P15056); assay: Kinase profiling; type: biochemical; details: Conc 1000 nM; read-out: Percent inhibition, bRAF
T18 construct: purchased Ambit KINOMEscan
Text: as §1

T14 sequence (P07949 29-1114): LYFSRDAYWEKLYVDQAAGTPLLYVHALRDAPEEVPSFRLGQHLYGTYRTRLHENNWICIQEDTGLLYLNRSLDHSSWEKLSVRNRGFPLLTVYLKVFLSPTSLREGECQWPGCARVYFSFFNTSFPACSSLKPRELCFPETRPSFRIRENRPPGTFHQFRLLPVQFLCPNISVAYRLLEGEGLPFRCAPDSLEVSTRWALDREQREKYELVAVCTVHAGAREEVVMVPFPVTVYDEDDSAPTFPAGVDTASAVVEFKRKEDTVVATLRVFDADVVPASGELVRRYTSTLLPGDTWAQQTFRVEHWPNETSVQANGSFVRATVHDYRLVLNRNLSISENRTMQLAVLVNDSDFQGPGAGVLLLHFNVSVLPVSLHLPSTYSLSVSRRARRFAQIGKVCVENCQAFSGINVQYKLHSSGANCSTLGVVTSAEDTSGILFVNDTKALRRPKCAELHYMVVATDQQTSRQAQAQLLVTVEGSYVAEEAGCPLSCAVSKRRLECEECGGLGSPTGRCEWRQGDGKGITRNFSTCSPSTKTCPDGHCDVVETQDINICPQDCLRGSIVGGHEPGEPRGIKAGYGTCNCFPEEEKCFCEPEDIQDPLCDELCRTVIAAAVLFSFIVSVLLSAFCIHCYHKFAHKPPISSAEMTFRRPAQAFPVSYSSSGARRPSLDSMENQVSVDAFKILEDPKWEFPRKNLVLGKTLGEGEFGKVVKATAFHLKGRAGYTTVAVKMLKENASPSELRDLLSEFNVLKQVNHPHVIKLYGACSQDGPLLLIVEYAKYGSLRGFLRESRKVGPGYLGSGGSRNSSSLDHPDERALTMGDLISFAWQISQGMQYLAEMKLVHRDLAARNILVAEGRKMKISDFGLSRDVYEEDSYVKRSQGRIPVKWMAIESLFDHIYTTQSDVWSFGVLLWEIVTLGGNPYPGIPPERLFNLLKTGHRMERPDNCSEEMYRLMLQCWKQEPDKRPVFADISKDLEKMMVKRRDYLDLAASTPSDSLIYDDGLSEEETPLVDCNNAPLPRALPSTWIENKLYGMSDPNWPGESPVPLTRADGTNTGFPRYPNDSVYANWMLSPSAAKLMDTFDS
T9 sequence (P35968 20-1356): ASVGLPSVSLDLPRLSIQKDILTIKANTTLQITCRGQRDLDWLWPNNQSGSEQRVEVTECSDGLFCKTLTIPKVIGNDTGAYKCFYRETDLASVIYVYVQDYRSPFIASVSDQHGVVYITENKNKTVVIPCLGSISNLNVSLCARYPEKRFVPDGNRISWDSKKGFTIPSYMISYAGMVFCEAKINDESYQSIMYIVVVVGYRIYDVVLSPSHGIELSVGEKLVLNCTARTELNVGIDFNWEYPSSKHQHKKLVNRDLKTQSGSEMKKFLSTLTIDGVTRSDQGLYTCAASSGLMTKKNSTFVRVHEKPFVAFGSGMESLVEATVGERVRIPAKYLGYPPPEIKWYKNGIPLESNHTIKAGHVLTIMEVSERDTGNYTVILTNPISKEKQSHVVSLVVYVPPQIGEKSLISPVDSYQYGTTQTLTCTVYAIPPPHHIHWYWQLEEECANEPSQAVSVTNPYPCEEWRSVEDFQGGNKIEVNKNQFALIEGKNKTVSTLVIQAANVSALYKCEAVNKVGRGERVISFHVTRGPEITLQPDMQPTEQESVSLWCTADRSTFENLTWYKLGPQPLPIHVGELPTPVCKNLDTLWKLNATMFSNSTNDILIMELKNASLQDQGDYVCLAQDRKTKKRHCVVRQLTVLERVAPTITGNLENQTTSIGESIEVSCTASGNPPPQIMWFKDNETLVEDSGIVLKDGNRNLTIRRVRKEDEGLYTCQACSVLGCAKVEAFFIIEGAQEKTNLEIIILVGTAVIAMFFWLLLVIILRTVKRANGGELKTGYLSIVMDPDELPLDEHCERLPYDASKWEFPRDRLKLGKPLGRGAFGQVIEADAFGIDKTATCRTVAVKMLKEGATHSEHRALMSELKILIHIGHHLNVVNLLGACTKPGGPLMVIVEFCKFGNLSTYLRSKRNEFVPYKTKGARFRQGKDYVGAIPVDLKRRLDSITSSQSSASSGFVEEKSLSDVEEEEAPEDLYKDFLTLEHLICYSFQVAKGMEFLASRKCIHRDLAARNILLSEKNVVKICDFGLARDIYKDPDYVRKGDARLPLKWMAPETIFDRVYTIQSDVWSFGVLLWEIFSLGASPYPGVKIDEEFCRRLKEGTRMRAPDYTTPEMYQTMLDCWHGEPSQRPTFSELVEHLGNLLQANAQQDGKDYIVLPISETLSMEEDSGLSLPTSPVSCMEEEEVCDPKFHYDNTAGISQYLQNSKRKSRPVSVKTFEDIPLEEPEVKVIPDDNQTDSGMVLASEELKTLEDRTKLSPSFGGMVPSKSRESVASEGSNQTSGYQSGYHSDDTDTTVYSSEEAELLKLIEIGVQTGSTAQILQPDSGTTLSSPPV
T5 sequence (P22607 23-806): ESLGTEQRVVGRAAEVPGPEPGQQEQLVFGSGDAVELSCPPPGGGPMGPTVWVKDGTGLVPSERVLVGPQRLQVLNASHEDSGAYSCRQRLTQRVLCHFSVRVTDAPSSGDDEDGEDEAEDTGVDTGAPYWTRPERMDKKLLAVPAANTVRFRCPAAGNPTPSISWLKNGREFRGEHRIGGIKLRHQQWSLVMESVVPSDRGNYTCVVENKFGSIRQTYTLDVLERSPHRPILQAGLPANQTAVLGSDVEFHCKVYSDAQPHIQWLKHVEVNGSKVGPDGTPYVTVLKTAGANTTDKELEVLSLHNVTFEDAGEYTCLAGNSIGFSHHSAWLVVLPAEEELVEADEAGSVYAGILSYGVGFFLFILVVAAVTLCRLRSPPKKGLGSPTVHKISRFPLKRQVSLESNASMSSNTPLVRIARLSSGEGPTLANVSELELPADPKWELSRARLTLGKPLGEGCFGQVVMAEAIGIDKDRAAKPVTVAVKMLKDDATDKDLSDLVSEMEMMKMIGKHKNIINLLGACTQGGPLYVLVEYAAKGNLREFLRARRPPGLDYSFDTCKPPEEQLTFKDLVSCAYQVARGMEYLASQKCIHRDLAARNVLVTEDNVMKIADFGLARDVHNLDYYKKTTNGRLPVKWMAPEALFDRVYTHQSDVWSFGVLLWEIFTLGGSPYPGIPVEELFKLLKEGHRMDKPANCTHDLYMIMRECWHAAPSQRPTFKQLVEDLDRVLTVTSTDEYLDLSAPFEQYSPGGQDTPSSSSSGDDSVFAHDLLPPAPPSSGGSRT
T15 sequence (P12931 whole entry): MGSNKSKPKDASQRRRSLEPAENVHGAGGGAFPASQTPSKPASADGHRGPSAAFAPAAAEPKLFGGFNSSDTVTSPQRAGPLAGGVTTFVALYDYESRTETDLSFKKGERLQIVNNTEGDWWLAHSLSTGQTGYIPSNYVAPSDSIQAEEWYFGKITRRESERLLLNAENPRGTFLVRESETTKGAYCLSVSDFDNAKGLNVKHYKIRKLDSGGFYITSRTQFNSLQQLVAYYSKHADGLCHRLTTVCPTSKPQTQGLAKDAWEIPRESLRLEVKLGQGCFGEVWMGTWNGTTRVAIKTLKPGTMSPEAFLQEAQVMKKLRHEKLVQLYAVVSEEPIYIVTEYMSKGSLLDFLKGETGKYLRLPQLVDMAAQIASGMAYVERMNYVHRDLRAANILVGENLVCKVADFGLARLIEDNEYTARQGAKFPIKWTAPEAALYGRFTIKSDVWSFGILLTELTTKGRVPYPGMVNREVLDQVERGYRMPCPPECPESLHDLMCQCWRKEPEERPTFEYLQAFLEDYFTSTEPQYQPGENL
T1 sequence (P51813 whole entry): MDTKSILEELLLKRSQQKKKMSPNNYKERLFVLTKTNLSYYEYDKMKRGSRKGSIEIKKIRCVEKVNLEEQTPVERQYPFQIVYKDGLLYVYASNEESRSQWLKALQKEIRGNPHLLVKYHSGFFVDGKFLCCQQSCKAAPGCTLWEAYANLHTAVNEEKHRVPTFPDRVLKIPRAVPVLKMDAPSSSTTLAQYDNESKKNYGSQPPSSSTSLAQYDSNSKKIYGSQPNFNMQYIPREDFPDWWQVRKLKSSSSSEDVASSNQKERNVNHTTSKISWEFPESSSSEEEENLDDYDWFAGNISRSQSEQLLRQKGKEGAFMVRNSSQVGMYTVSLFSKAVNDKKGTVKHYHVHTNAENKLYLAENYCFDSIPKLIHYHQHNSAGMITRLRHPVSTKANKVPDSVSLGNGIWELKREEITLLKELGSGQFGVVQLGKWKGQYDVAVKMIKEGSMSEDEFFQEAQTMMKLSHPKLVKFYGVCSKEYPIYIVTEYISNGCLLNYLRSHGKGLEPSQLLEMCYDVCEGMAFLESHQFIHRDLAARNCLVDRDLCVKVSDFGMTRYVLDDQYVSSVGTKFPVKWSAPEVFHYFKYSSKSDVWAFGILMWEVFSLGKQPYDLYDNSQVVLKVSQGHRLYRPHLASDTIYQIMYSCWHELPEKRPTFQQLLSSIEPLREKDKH
T13 sequence (Q9P1W9 whole entry): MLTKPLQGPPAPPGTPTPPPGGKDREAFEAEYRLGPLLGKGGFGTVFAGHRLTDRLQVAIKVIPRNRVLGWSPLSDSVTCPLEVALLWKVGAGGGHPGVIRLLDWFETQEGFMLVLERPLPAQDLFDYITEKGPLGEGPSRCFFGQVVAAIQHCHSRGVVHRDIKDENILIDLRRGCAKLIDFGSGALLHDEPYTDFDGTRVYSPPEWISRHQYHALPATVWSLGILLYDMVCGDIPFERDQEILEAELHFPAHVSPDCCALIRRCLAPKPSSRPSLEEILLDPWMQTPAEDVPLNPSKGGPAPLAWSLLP

SMILES	EC50 [1]	induction of Wnt-driven luciferase reporter gene [2]	inhibition at 1 µM (BMX)	inhibition at 1 µM (EGFR)	inhibition at 1 µM (EphA3)	inhibition at 1 µM (ErbB4 (HER4))	inhibition at 1 µM (FGFR3)	inhibition at 1 µM (IGF1R)	inhibition at 1 µM (IKKb)	inhibition at 1 µM (JNK2)	inhibition at 1 µM (KDR (VEGFR2, FLK1))	inhibition at 1 µM (MAPK1 (ERK2))	inhibition at 1 µM (MET)	inhibition at 1 µM (NEK2)	inhibition at 1 µM (PIM-2)	inhibition at 1 µM (RET)	inhibition at 1 µM (SRC)	inhibition at 1 µM (SYK)	inhibition at 1 µM (ZAP70)	inhibition at 1 µM (bRAF)	also measured
Nc1ncc(-c2ccccc2)nc1C(=O)Nc1cnccc1N1CCC(C(=O)O)CC1 [GNF7156]	2200 nM	induce a Wnt-driven luciferase reporter gene	88%	71%	82%	36%	60%	19%	8%	68%	102%	6%	47%	3%	60%	98%	61%	93%	70%	46%	–
CC(C)Oc1ccc(F)c(-c2cnc(N)c(C(=O)Nc3cnccc3N3CCC[C@@H](C(=O)O)C3)n2)c1 [GNF4877]	660 nM	induce a Wnt-driven luciferase reporter gene	43%	44%	63%	54%	32%	49%	-1%	51%	101%	7%	63%	0%	31%	96%	64%	95%	94%	20%	inhibition at 0.2 µM (KDR (VEGFR2, FLK1); Conc 200 nM): 6%; inhibition at 0.2 µM (RET; Conc 200 nM): 26%; inhibition at 0.2 µM (SYK; Conc 200 nM): 89%; inhibition at 0.2 µM (ZAP70; Conc 200 nM): 0%

— PMC4639830, “Inhibition of DYRK1A and GSK3B induces human β-cell proliferation” (Nature Communications, 2015)
